Source: patent US20220133650A1, “COMBINATION THERAPY FOR TREATMENT OF BRAIN DISORDERS” (B. G. NEGEV TECHNOLOGIES AND APPLICATIONS LTD., AT …, priority 2019, published 2022)

Columns and labels:
exposed rat cortex [1] = assay: Agonist-induced vascular permeability to NaFlu, agonists added to ACSF with neuronal activity blocked; assay type: in vivo, Sprague-Dawley rats; settings: neuronal activity and synaptic transmission blocked, mean±SEM
exposed rat cortex [2] = assay: Seizure (4AP)-induced BBB dysfunction, fluorescent angiography permeability index; assay type: in vivo, Sprague-Dawley rats; settings: 4AP-induced seizures (SE), NaFlu tracer, mean±SEM
rat brain [3] = assay: T2-weighted MRI after photo-induced thrombotic stroke, relative lesion volume; assay type: in vivo; settings: 48 h following photothrombosis; osmotic pumps i.p.; memantine 40 mg/kg, losartan 60 mg/kg; mean±SEM
rat brain [4] = assay: Contrast enhanced T1-weighted MRI after photo-induced thrombotic stroke, relative BBB dysfunction volume; assay type: in vivo; settings: 48 h following photothrombosis; osmotic pumps i.p.; memantine 40 mg/kg, losartan 60 mg/kg; mean±SEM
[5] = 10 min after adding the agonist to ACSF
[6] = 30 min after adding the agonist to ACSF

| Compound | shift in vascular permeability to NaFlu (PI shift from pre-substance application) (exposed rat cortex [1]; [5]) | shift in vascular permeability to NaFlu (PI shift from pre-substance application) (exposed rat cortex [1]; [6]) | shift in PI (BBB permeability index) from baseline (exposed rat cortex [2]; 10 min from seizure onset) | shift in PI (BBB permeability index) from baseline (exposed rat cortex [2]; 30 min from seizure onset) | relative lesion volume (100*# lesion voxels/# brain voxels) (rat brain [3]) | relative BBB dysfunction volume (100*# BBBD voxels/# brain voxels) (rat brain [4]) |
| --- | --- | --- | --- | --- | --- | --- |
| angiotensin II (DRVYIHPF; Angiotensin-2; UniProt P01019 25-32, looked up) [ATII, angiotensin II, agonist added to the ACSF, 70 μM] | −4.11±3.35% | −12.33±3.45% |  |  |  |  |
| bovine-serum albumin: bovine serum albumin, 0.2 mM added to the ACSF | −2.55±4.6% | −0.33±8.36% |  |  |  |  |
| N[C@H](CCCP(=O)(O)O)C(=O)O [AP5, D-(−)-2-amino-5-phosphonopentanoic acid] |  |  | −1.19±4.71% | 18.78±6.93% |  |  |
| CC12CC3CC(C)(C1)CC(N)(C3)C2 [memantine, 3,5-dimethyladamantan-1-amine] |  |  | 3.14±3.1% | 20.86±3.78% | 24.18±3.75% | 15.03±1.83% |
| TGF-β1: transforming growth factor beta 1, 10 ng/ml added to the ACSF |  | 15.3±7.62% |  |  |  |  |
